Data: patent publication US8334236B2, “Ring-fused 2-pyridone derivatives and herbicides” (Kumiai Chemical Industry Co., Ltd., priority 2009, dated 2012)

How the values were obtained:
Assay type in all cases: in vivo
Set-up in all cases: scale not given here
[1] = tested on: Abutilon theophrasti medicus; assay: Test Example 3: herbicidal effects in farmland foliar treatment; conditions: 1000 g active ingredient per hectare, 14th day after treatment
Procedure: (§1) 80-cm^2 plastic pots were filled with farmland soil. Seeds of Echinochloa crus-galli (L.) P. Beauv. var. crus-galli, Abutilon theophrasti medicus, and Amaranthus retroflexus were sowed in the pots, and the plants were grown for two weeks in a greenhouse. A wettable powder formulation prepared according to Formulation Example 1 was diluted with water, and the dilution was applied by foliar treatment by spraying with a small sprayer over the whole plant from the upper part, in an amount equivalent to 1000 liters per hectare, such that 1000 g of the active ingredient was applied per hectare. Thereafter, the plants were grown in a greenhouse, and on the 14th day after the treatment, the herbicidal effects were investigated according to the criteria described in Table 71 shown above.

[2] = tested on: Echinochloa crus-galli (L.) P. Beauv. var. crus-galli; assay: as above; conditions: 1000 g active ingredient per hectare, 14th day after treatment
Procedure: as §1

Amaranthus retroflexus [3] = assay: as above; conditions: 1000 g active ingredient per hectare, 14th day after treatment
Procedure: as §1

[4] = tested on: Abutilon theophrasti medicus; assay: Test Example 2: herbicidal effects in farmland soil treatment; conditions: 1000 g active ingredient per hectare, 21st day after treatment
Procedure: as §1, with “of” for “of Echinochloa crus-galli (L.) P. Beauv. var. crus-galli,”, “medicus” for “medicus,”, “soil was covered.” for “the plants were grown for two weeks in a greenhouse.”, “uniformly sprayed on the soil surface” for “applied by foliar treatment by spraying”, “sprayer,” for “sprayer over the whole plant from the upper part,”, “21st” for “14th”

Amaranthus retroflexus [5] = assay: as above; conditions: 1000 g active ingredient per hectare, 21st day after treatment
Procedure: as §1, with “of” for “of Echinochloa crus-galli (L.) P. Beauv. var. crus-galli,”, “medicus” for “medicus,”, “soil was covered.” for “the plants were grown for two weeks in a greenhouse.”, “uniformly sprayed on the soil surface” for “applied by foliar treatment by spraying”, “sprayer,” for “sprayer over the whole plant from the upper part,”, “21st” for “14th”

[6] = tested on: Monochoria vaginalis (Burm. f.) Presl var. plantaginea (Roxb.) Solms-Laub.; assay: Test Example 1: herbicidal effects in paddy field soil treatment; conditions: 1000 g active ingredient per hectare, 21st day after treatment
Procedure: (§2) 100-cm^2 plastic pots were filled with paddy field soil. After puddling and leveling, seeds of Echinochloa oryzicola Vasing, Monochoria vaginalis (Burm. f.) Presl var. plantaginea (Roxb.) Solms-Laub., and Scirpus juncoides Roxb. var. ohwianus. T. Koyama were sowed in the pots, and the soil was waterlogged to a water depth of 3 cm. On the next day, a wettable powder formulation prepared according to Formulation Example 1 was diluted with water, and the dilution was added dropwise onto the water surface. The amount of application was an amount equivalent to 1000 g of the active ingredient per hectare. Thereafter, the plants were grown in a greenhouse, and on the 21st day after the treatment, the herbicidal effects were investigated according to the criteria described in Table 71.
(§3) In addition, comparative compound A, comparative compound B, comparative compound C, and comparative compound D in the tables represent Compound Nos. 70, 34, 32, and 31, respectively, as described in EP-283261. The structural formulas of these compounds are presented below.

[7] = tested on: Echinochloa oryzicola Vasing; assay: as above; conditions: 1000 g active ingredient per hectare, 21st day after treatment
Procedure: as §2, §3

[8] = tested on: Scirpus juncoides Roxb. var. ohwianus. T. Koyama; assay: as above; conditions: 1000 g active ingredient per hectare, 21st day after treatment
Procedure: as §2, §3

Setaria viridis [9] = assay: Test Example 2: herbicidal effects in farmland soil treatment; conditions: 1000 g active ingredient per hectare, 21st day after treatment
Echinochloa crus-galli = assay: as above; conditions: 1000 g active ingredient per hectare, 21st day after treatment
Setaria viridis [10] = assay: Test Example 3: herbicidal effects in farmland foliar treatment; conditions: 1000 g active ingredient per hectare, 14th day after treatment

Row | SMILES | Herbicidal effect index, Abutilon theoprasti [1] | Herbicidal effect index, Echinochloa crus-galli [2] | Herbicidal effect index, Amaranthus retroflexus (Amaranthus retroflexus [3]) | Herbicidal effect index, Abutilon thophrasti [4] | Herbicidal effect index, Amaranthus retroflexus (Amaranthus retroflexus [5]) | Herbicidal effect index, Monochoria vaginalis [6] | Herbicidal effect index, Echinochloa oryzicola [7] | Herbicidal effect index, Scirpus juncoides [8] | Herbicidal effect index, Setaria viridis (Setaria viridis [9]) | Herbicidal effect index, Echinochloa crus-galli (Echinochloa crus-galli) | Herbicidal effect index, Setaria viridis (Setaria viridis [10])
1 | O=C1CCCC(O)=C1C(=O)c1ccc2ccccc2n1 [Comparative compound B, reference compound] | 5 | 0 | 1 | 2 | 2 | 0 | 0 | 0 | 0 | 3 | 0
2 | CC(C)c1ccc2cc(C(=O)C3=C(O)CCCC3=O)c(=O)n(C)c2n1 [II-126] | – | – | – | – | – | 5 | 3 | 4 | – | – | –
3 | O=C1CCCC(O)=C1C(=O)c1cc2ccc(C(F)F)nc2n(-c2ccc3c(c2)OCCO3)c1=O [II-442] | – | – | – | – | – | 5 | 5 | 5 | – | – | –
4 | COc1ccc(Cn2c(=O)c(C(=O)C3=C(O)CCCC3=O)cc3cccnc32)cc1 [II-39] | 5 | 5 | 5 | – | – | 5 | 5 | 5 | – | – | 3
5 | Cc1ccc2cc(C(=O)C3=C(O)CCCC3=O)c(=O)n(C)c2n1 [II-121] | 5 | 4 | 5 | – | – | 5 | 5 | 5 | – | – | 3
6 | O=C1CCCC(O)=C1C(=O)c1cc2cccnc2n(-c2cccc(C(F)(F)F)c2)c1=O [II-52] | 5 | 5 | 5 | 5 | 5 | 5 | 5 | 5 | 5 | 5 | 5
7 | O=C1CCCC(O)=C1C(=O)c1cc2ncccc2n(-c2ccccc2)c1=O [III-41] | – | – | – | – | – | 4 | 4 | 4 | – | – | –
8 | O=C1CCCC(O)=C1C(=O)c1cc2ccc(C(F)(F)Cl)nc2n(-c2ccccc2)c1=O [II-143] | 5 | 5 | 5 | 5 | 5 | 5 | 5 | 5 | 5 | 5 | 5
9 | CCn1c(=O)c(C(=O)C2=C(O)CCCC2=O)cc2c(Cl)cccc21 [I-157] | – | – | – | – | – | 4 | 5 | 3 | – | – | –
10 | O=C1CCCC(O)=C1C(=O)c1cc2cccnc2n(-c2cccc(F)c2)c1=O [II-43] | 5 | 5 | 5 | 5 | 5 | 5 | 5 | 5 | 5 | 5 | 5
11 | COc1cccc(-n2c(=O)c(C(=O)C3=C(O)CCCC3=O)cc3cccnc32)c1 [II-55] | 5 | 5 | 5 | 5 | 5 | 5 | 5 | 5 | 5 | 5 | 5
12 | Cn1c(=O)c(C(=O)C2=C(O)CCCC2=O)cc2ccc(C(F)F)nc21 [II-131] | 5 | 4 | 5 | 5 | 5 | 5 | 5 | 5 | 3 | 4 | 4
13 | CCOCCn1c(=O)c(C(=O)C2=C(O)CCCC2=O)cc2cccnc21 [II-15] | 5 | 5 | 5 | 5 | 5 | 5 | 5 | 5 | 5 | 5 | 5
14 | COc1cccc(Cn2c(=O)c(C(=O)C3=C(O)CCCC3=O)cc3cccnc32)c1 [II-38] | – | – | – | – | – | 5 | 5 | 5 | – | – | –
15 | O=C1CCCC(O)=C1C(=O)c1cc2ccc(C(F)(F)F)nc2n(-c2ccccc2)c1=O [II-138] | 5 | 5 | 3 | – | – | 5 | 5 | 5 | – | – | 5
16 | CCn1c(=O)c(C(=O)C2=C(O)CCCC2=O)cc2cccnc21 [II-3] | 5 | 5 | 5 | – | – | 5 | 5 | 5 | – | – | 4
17 | O=C1CCCC(O)=C1C(=O)c1cc2cccnc2n(Cc2cccc(Cl)c2)c1=O [II-29] | – | – | – | – | – | 5 | 5 | 5 | – | – | –
18 | O=C1CCCC(O)=C1C(=O)c1cc2cccnc2n(Cc2ccc(Cl)cc2)c1=O [II-30] | – | – | – | – | – | 5 | 4 | 5 | – | – | –
19 | CCc1ccc2cc(C(=O)C3=C(O)CCCC3=O)c(=O)n(C)c2n1 [II-434] | – | – | – | – | – | 5 | 5 | 5 | – | – | –
20 | COc1ccc(-n2c(=O)c(C(=O)C3=C(O)CCCC3=O)cc3ccccc32)cc1 [I-56] | 5 | 3 | 5 | – | – | 5 | 5 | 5 | – | – | 3
21 | O=C1CCCC(O)=C1C(=O)c1cc2cccnc2n(Cc2ccccc2Cl)c1=O [II-28] | 5 | 4 | 5 | – | – | 5 | 5 | 5 | – | – | 3
